Assay results taken from patent publication US9134325B2, “Resistance biomarkers for HDAC inhibitors” (Celgene Corporation, priority 2012, dated 2015).
pIC50: −log10 of the molar value. Where “and” joins values, the source holds several entries; their conditions need not be identical. Equal entries are not always repeated.

Columns and labels:
class 1 HDACs 1 and 2 = details: data from Bradner et al., FIG. 6; cited from earlier work
HDF TSPYL5 KD cells = experiment: Cell growth assay in human dermal fibroblasts with TSPYL5 knockdown; assay type: cell-based; details: HDF TSPYL5 KD versus HDF NS, FIG. 8
From the text: FIG. 8 depicts the effect of knockdown of TSPYL5 expression on sensitivity of HDF cells to romidepsin using shRNA, as measured by the effect of romidepsin treatment on IC50 (Panel A), growth rate (GR) (Panel B) and S value (Panel C). Sensitivity of TSPYL5 knockdown cells to romidepsin is increased as measured by S value and growth rate. HDF cells expressing either TSPYL5 shRNA (HDF TSPYL5 KD) or non-silencing control shRNA (HDF NS) were created using lentiviral infection. Knockdown of TSPYL5 in HDF TSPYL5 KD cells was verified using western blot and quantitative PCR. Expression of TSPYL5 in these cells was reduced by >70%. After selection of stable pools with puromycen, cells were treated with varying concentrations of romidepsin for determination of IC50, GR and S value. The data shown are means and standard deviations from 8 independent experiments. Panel A: Romidepsin IC50s for HDF TSPYL5 KD cells and HDF NS cells. Panel B: Romidepsin GR for HDF TSPYL5 KD cells and HDF NS cells. […]
To determine cell growth IC50 and GR at a given drug concentration, growth was plotted against drug concentration as a percentage of the number of cells present at the beginning of the experiment. […] The viable cells were measured at day 0 (24 hours after plating) and day 3 (72 hours after adding the tested compound) using Cell Titer-Glo. Growth was calculated compared to day 0.

[1] = system: primary human tumors propagated in mice; experiment: Clonogenic two-layer soft agar assay of primary patient tumor explants; assay type: cell-based; details: IC50 of clonogenic assay against TSPYL5 expression, FIG. 4
Experimental: Primary human tumors were propagated in mice. Tumors were dissociated and their sensitivity to romidepsin was tested using a clonogenic assay.
The clonogenic assay was performed in a 24-well format according to a modified two-layer soft agar assay introduced by Hamburger & Salmon (Hamburger A W, Salmon S E. Primary bioassay of human tumor stem cells. Science 197:461 (1977)). Briefly, cells were seeded on a bottom layer of growth medium supplemented with 0.4% (w/v) agar. Cells were added in 0.2 ml of the same medium supplemented with 0.4% (w/v) agar. Test compounds were applied diluted in culture medium. Cultures were incubated at 37° C. and 7.5% CO2 in a humidified atmosphere for up to 21 days. After 4-21 days, colonies were counted and drug effect was expressed as percent colony formations compared to untreated controls.

cell line panel = experiment: Cell line panel viability screen (Cell Titer-Glo), S-value; assay type: cell-based
Experimental: (§1) Sensitivity of cells to HDAC inhibitor treatment is expressed as their S-value (S), which is a dimensionless compound value generated by adding the values of IC50 and the growth rate (GR) at the maximum drug concentration used to determine the IC50. The term (maximum drug concentration/200) is added in the equation below to achieve equal weighting of the S-value for IC50 and GR. S=IC50+(GR+100)×(maximum drug concentration/200) See FIG. 1 for an example of an S value calculation and explanation of GR.
(§2) To determine cell growth IC50 and GR at a given drug concentration, growth was plotted against drug concentration as a percentage of the number of cells present at the beginning of the experiment. Cells were plated in 96-well plates and allowed to attach and grow overnight. The following day, the cells were treated with serial dilutions of test compound. The viable cells were measured at day 0 (24 hours after plating) and day 3 (72 hours after adding the tested compound) using Cell Titer-Glo. Growth was calculated compared to day 0.
(§3) The plot generated two key data, the IC50 value and the % growth at the highest tested compound concentration (GR). The highest concentration tested for romidepsin was 1000 nM.
The IC50s in these experiments could range from 0-1000 nM. […] Growth at the highest drug concentration tested ranged from −100 to +100. For the calculation of the S-Value, 100 was added to the numerical value of the observed growth, so that only positive numbers were generated (after adding 100, the range was from 0-200). Since IC50s and growth at the maximum drug concentration tested have different numerical ranges (0-1000 as compared to 0-200), the value for growth inhibition was multiplied by the maximum drug concentration used/200. This means that in the example given, both IC50 and GR could contribute values of 0-1000 to the S-value.
A cell line panel viability screen was used to compare the effects of a 6 hour and 72 hour treatment with romidepsin across a wide variety of cell lines. […] The S-Value was computed for the 6 h treatment and ranged from 5 for the most sensitive cell lines to 2000 for the most resistant cell lines. To identify genes whose expression correlated with sensitivity to HDAC inhibitor treatment, we applied two way ANOVA to select genes that were correlated with sensitivity. […] The most overexpressed gene in the resistant subgroup, ABCB1 (Res/Sen=29.6) is known to cause resistance to romidepsin treatment. This approach identified novel genes that correlated with resistance and/or sensitivity to the HDAC inhibitors but not tissue origin.
A cell line panel viability screen was used to compare the effects of romidepsin across a wide variety of cell lines and is shown in FIG. 3.

SKOV3 NS cells = experiment: Cell growth assay (Cell Titer-Glo) in SKOV3 cells expressing non-silencing control shRNA; assay type: cell-based; details: for pIC50: romidepsin, 5 independent experiments
Experimental: as §1, §2, §3
Effect of knocking down TSPYL5 expression using shRNA on IC50, GR and S values of romidepsin treatment. SKOV3 cells expressing either TSPYL5 shRNA (SKOV3 TSPYL5 KD) or non-silencing control shRNA (SKOV3 NS) were created using lentiviral infection. Knockdown of TSPYL5 in SKOV3 TSPYL5 KD cells was verified using western blot and quantitative PCR. Expression of TSPYL5 in these cells was reduced by 70%. After selection of stable pools with puromycin, cells were treated with varying concentrations of romidepsin for determination of IC50, GR and S value. Data from 5 independent experiments are shown. SKOV3 TSPYL5 KD cells have lower IC50s, show […] growth rate (GR) and have thus smaller S values than SKOV3 NS cells, meaning these cells are more sensitive to treatment with romidepsin. The data are plotted in FIG. 5. Differences between the 2 lines are significant (paired t test).

SKOV3 TSPYL5 KD cells = experiment: Cell growth assay (Cell Titer-Glo) in SKOV3 cells expressing TSPYL5 shRNA; assay type: cell-based
Experimental: as §1, §2
The plot generated two key data, the IC50 value and the % growth at the highest tested compound concentration (GR). […]
Effect of knocking down TSPYL5 expression using shRNA on IC50, GR and S values of romidepsin treatment. […] Knockdown of TSPYL5 in SKOV3 TSPYL5 KD cells was verified using western blot and quantitative PCR. […]

class 2 HDAC 6 = molecular target: T1, class 2 HDAC 6 (Homo sapiens, UniProt Q9UBN7); details: data from Bradner et al., FIG. 6; cited from earlier work
T1 sequence (Q9UBN7 1-1215): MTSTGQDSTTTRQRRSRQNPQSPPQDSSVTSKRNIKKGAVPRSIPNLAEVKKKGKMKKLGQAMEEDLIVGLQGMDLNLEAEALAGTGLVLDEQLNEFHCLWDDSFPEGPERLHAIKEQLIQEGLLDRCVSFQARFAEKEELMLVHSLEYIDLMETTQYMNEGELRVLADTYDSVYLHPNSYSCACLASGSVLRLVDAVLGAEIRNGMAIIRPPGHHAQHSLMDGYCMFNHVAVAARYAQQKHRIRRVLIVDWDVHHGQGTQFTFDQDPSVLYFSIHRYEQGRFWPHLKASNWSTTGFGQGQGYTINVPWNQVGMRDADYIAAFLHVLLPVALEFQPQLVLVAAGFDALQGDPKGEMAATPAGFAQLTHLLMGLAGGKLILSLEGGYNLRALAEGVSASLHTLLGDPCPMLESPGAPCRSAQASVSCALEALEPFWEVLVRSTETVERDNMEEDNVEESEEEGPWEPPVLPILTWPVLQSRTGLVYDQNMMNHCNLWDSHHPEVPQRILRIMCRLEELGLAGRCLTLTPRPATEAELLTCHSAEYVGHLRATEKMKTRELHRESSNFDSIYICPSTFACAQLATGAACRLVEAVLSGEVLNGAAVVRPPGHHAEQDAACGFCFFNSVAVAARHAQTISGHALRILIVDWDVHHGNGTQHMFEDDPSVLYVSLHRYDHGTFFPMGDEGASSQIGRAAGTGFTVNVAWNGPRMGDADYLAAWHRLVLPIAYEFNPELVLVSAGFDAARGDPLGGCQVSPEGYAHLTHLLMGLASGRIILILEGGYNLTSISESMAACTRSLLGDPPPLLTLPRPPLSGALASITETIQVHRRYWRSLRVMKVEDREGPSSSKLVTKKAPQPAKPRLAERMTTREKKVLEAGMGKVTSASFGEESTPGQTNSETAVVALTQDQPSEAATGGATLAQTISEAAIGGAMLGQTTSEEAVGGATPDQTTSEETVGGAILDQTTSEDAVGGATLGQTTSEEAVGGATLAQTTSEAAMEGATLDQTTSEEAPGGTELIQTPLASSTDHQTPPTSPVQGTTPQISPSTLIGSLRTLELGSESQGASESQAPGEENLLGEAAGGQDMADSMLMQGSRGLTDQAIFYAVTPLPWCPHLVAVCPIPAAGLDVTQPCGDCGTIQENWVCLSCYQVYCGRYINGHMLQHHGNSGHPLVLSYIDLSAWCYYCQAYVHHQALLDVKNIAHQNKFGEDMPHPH

SMILES	Inhibition of class 1 HDACs 1 and 2 (class 1 HDACs 1 and 2)	Effect of TSPYL5 knockdown on sensitivity of HDF cells (HDF TSPYL5 KD cells)	Sensitivity of primary tumors with high TSPYL5 expression [1]	Sensitivity by tissue of origin (cell line panel; 6 h drug treatment, S value, FIG. 2B)	S-value across cell lines (cell line panel; 6 h drug treatment, most sensitive to most resistant cell lines)	Sensitivity of cell lines (cell line panel; 72 hour treatment)	Sensitivity of cell lines expressing high levels of TSPYL5 (cell line panel; S value against TSPYL5 gene expression, FIG. 3)	pIC50 (cell line panel; read-out: IC50 of cell growth)	pIC50 (SKOV3 NS cells; Homo sapiens, SK-OV-3, SKOV3 NS (non-silencing control shRNA))	pIC50 (SKOV3 NS cells; SKOV3 NS (non-silencing control shRNA))	S value (SKOV3 NS cells; SKOV3 NS, S=IC50+(GR+100)×(maximum drug concentration/200))	S value (SKOV3 TSPYL5 KD cells; S=IC50+(GR+100)×(maximum drug concentration/200))	GR (growth at the highest tested concentration) (SKOV3 TSPYL5 KD cells; highest romidepsin concentration 1000 nM, relative to day 0)	Inhibition of class 2 HDAC 6 (class 2 HDAC 6)
C/C=C1\NC(=O)[C@H]2CSSCC/C=C/[C@H](CC(=O)N[C@H](C(C)C)C(=O)N2)OC(=O)[C@H](C(C)C)NC1=O [romidepsin]	inhibit	increases sensitivity	resistant	blood cell lines show the greatest sensitivity	4-2000	majority of the tested cell lines showed sensitivity	no cell line expressing high levels of TSPYL5 was sensitive	7.01	6.85	6.87 and 6.86 and 7.01 and 6.79	291 and 253 and 256 and 230 and 243	156 and 115 and 105 and 112 and 135	−92.5% and −88.6% and −93.2% and −86.1% and −84.3%	–
Nc1ccccc1NC(=O)c1ccc(CNC(=O)OCc2cccnc2)cc1 [entinostat]	inhibit	–	–	–	–	–	–	–	–	–	–	–	–	–
O=C(CCCCCCC(=O)Nc1ccccc1)NO [vorinostat]	–	–	–	–	–	–	–	–	–	–	–	–	–	inhibit
